Experimental data published in ChEMBL document CHEMBL3714742, “Pyrimido (4,5-b) indole derivatives” (2003).
Active and inactive are the calls of the source. How the calls were made is not given here.

Key:
[1] = target: T1, Dual specificity mitogen-activated protein kinase kinase 7 (Homo sapiens, UniProt O14733); test: Inhibition of GST-tagged human MKK7 expressed in Escherichia coli (BL21(DE3) pLysS) co-expressing human MEKK catalytic domain using biotinylated and GST-tagged rat GST-KN-SAPKalpha substrate incubated for 1 hr by time-resolved fluorescence based assay
T1 sequence (O14733 whole entry): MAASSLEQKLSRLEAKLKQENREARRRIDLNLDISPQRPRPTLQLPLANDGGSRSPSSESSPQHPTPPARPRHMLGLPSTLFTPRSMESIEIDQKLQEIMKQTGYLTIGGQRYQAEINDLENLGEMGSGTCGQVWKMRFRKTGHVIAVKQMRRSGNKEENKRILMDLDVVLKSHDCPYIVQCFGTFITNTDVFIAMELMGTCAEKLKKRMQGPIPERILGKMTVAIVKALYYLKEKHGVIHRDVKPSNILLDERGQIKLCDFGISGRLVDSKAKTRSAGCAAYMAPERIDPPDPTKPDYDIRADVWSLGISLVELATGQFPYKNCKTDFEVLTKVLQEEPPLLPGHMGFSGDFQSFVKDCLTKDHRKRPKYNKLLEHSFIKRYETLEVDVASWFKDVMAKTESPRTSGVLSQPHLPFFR

Mus musculus [2] = test: Inhibition of anti-CD3 antibody-induced IL2 production in Balb/c mouse dosed intravenously 5 mins before anti-CD3 antibody injection and measured 2 hrs post-challenge by ELISA; format: functional, organism-based
Mus musculus [3] = test: Inhibition of anti-CD3 antibody-induced IL4 production in Balb/c mouse dosed intravenously 5 mins before anti-CD3 antibody injection and measured 2 hrs post-challenge by ELISA; format: functional, organism-based
Mus musculus [4] = test: Inhibition of anti-CD3 antibody-induced IFNgamma production in Balb/c mouse dosed intravenously 5 mins before anti-CD3 antibody injection and measured 2 hrs post-challenge by ELISA; format: functional, organism-based

Structure (SMILES)	IC50 [1] [nM]	inhibition (Mus musculus [2])	inhibition (Mus musculus [3])	inhibition (Mus musculus [4])
N[C@H]1CCN(c2ncnc3[nH]c4ccc(O)cc4c23)C1	< 1000	Active	Active	Active
OCC1CCCN(c2ncnc3[nH]c4ccc(O)cc4c23)C1 (centres undefined)	< 1000	Active	Active	Active
Cc1nc(N2CCCC2)c2c(n1)[nH]c1ccc(O)cc12	1000	Active	Active	Active
Nc1nc(NC2CCCCCC2)c2c(n1)[nH]c1ccc(O)cc12	< 1000	Active	Active	Active
CN(c1ncnc2[nH]c3ccc(O)cc3c12)C1CCCCC1	< 1000	Active	Active	Active
CC1CCCCN1c1ncnc2[nH]c3ccc(O)cc3c12 (centres undefined)	< 1000	Active	Active	Active
O=CN1CCN(c2ncnc3[nH]c4ccc(O)cc4c23)CC1	< 1000	Active	Active	Active
Nc1nc(N2CCC(O)CC2)c2c(n1)[nH]c1ccc(O)cc12	< 1000	Active	Active	Active
COc1cc2[nH]c3nc(N)nc(N4CCOCC4)c3c2cc1OC	1000	Active	Active	Active
COC(=O)c1ccc2[nH]c3nc(N)nc(N4CCCCC4)c3c2c1	< 1000	Active	Active	Active
COc1cc2[nH]c3nc(N)nc(N4CCCCC4)c3c2cc1OC	1000	Active	Active	Active
NC1CCCN(c2ncnc3[nH]c4ccc(O)cc4c23)C1 (centres undefined)	< 1000	Active	Active	Active
Nc1nc(N(Cc2ccccc2)Cc2ccccc2)c2c(n1)[nH]c1ccc(O)cc12	> 10000	Active	Active	Active
Oc1ccc2[nH]c3ncnc(NC4CCOCC4)c3c2c1	< 1000	Active	Active	Active
Oc1ccc2[nH]c3ncnc(N4CCC(O)C4)c3c2c1 (centres undefined)	< 1000	Active	Active	Active
Nc1nc(N2CCC3(CC2)OCCO3)c2c(n1)[nH]c1ccc(O)cc12	< 1000	Active	Active	Active
CN(c1nc(N)nc2[nH]c3ccc(O)cc3c12)C1CCCCC1	< 1000	Active	Active	Active

Structure (SMILES)	IC50 [1] [nM]	inhibition (Mus musculus [2])	inhibition (Mus musculus [3])	inhibition (Mus musculus [4])
Cc1nc(N2CCCC(O)C2)c2c(n1)[nH]c1ccc(O)cc12 (centres undefined)	< 1000	Active	Active	Active
Cc1nc(N2CCCCC2)c2c(n1)[nH]c1ccc(O)cc12	< 1000	Active	Active	Active
CC1CCCCN1c1nc(N)nc2[nH]c3ccc(O)cc3c12 (centres undefined)	< 1000	Active	Active	Active
CC1CCCN(c2ncnc3[nH]c4ccc(O)cc4c23)C1 (centres undefined)	< 1000	Active	Active	Active
OCCC1CCN(c2ncnc3[nH]c4ccc(O)cc4c23)CC1	< 1000	Active	Active	Active
CCC1CCCCN1c1ncnc2[nH]c3ccc(O)cc3c12 (centres undefined)	< 1000	Active	Active	Active
O=C(O)C1CCN(c2ncnc3[nH]c4ccc(O)cc4c23)CC1	< 1000	Active	Active	Active
CC(C)(C)OC(=O)N1CCC(Nc2ncnc3[nH]c4ccc(O)cc4c23)CC1	< 1000	Active	Active	Active
CC1CC(C)CN(c2ncnc3[nH]c4ccc(O)cc4c23)C1 (centres undefined)	1000	Active	Active	Active
CN(CCO)c1nc(N)nc2[nH]c3ccc(O)cc3c12	< 1000	Active	Active	Active
CC(C)(C)OC(=O)NC1CCN(c2ncnc3[nH]c4ccc(O)cc4c23)CC1	< 1000	Active	Active	Active
Cc1nc(N2CCC(CO)CC2)c2c(n1)[nH]c1ccc(O)cc12	1000	Active	Active	Active
Cc1ccc2[nH]c3nc(N)nc(N4CCCCC4)c3c2c1	< 1000	Active	Active	Active
OCC1CCN(c2ncnc3[nH]c4ccc(O)cc4c23)CC1	< 1000	Active	Active	Active
Cc1nc(NC(C)CO)c2c(n1)[nH]c1ccc(OCc3ccccc3)cc12 (centres undefined)	< 1000	Active	Active	Active
Nc1nc(N2CCC3CCCCC3C2)c2c(n1)[nH]c1ccc(O)cc12 (centres undefined)	< 1000	Active	Active	Active

The next lines start with results.

IC50 [1] [nM]	Structure (SMILES)	inhibition (Mus musculus [2])	inhibition (Mus musculus [3])	inhibition (Mus musculus [4])
< 1000	NC(=O)c1ccc2[nH]c3ncnc(NCCO)c3c2c1	Active	Active	Active
< 1000	CN(CCO)c1ncnc2[nH]c3ccc(O)cc3c12	Active	Active	Active
< 1000	OCCCNc1ncnc2[nH]c3ccc(O)cc3c12	Active	Active	Active
< 1000	CC(CO)Nc1ncnc2[nH]c3ccc(O)cc3c12 (centres undefined)	Active	Active	Active
< 1000	OC[C@H](Cc1ccccc1)Nc1ncnc2[nH]c3ccc(O)cc3c12	Active	Active	Active
< 1000	Oc1ccc2[nH]c3ncnc(NC4CCCC4)c3c2c1	Active	Active	Active
< 1000	OCCC1CCCCN1c1ncnc2[nH]c3ccc(O)cc3c12 (centres undefined)	Active	Active	Active
< 1000	Nc1nc(NCCO)c2c(n1)[nH]c1ccc(O)cc12	Active	Active	Active
< 1000	NC(=O)c1ccc2[nH]c3ncnc(N4CCCCC4CO)c3c2c1 (centres undefined)	Active	Active	Active
< 1000	CC(C)(C)OC(=O)NCCCNc1ncnc2[nH]c3ccc(C(N)=O)cc3c12	Active	Active	Active
< 1000	NC(=O)c1ccc2[nH]c3ncnc(N4CCC(O)(Cc5ccccc5)CC4)c3c2c1	Active	Active	Active
< 1000	NC(=O)c1ccc2[nH]c3ncnc(N4CCC(N)C4)c3c2c1 (centres undefined)	Active	Active	Active
< 1000	NCCNc1ncnc2[nH]c3ccc(C(N)=O)cc3c12	Active	Active	Active
< 1000	NC(=O)c1ccc2[nH]c3ncnc(N4CCCC(N)C4)c3c2c1 (centres undefined)	Active	Active	Active
< 1000	C[C@@H](CO)Nc1ncnc2[nH]c3ccc(O)cc3c12	Active	Active	Active
< 1000	NC(=O)c1ccc2[nH]c3ncnc(N4CCC(CO)CC4)c3c2c1	Active	Active	Active
< 1000	NC(=O)c1ccc2[nH]c3ncnc(NC4CCCCC4)c3c2c1	Active	Active	Active
< 1000	NC(=O)c1ccc2[nH]c3ncnc(N4CCCC(O)C4)c3c2c1 (centres undefined)	Active	Active	Active
